#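 Following 48 hours of exposure in 96-well plates, responses at five concentrations were used to interpolate endpoints linearly. Definition used: TGI = concentration required for complete inhibition of growth.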
# Assays:
# Assay in all cases: growth of human tumour cells (NCI), 48 h
# [1] = system: SNB-19 CNS
# [2] = system: RXF 393 renal
# [3] = system: DU-145 prostate
# [4] = system: UACC-62 melanoma
# [5] = system: SF-539 CNS
# [6] = system: HCC-2998 colon
# [7] = system: T-47D breast
# [8] = system: MDA-MB-435
# [9] = system: SK-MEL-28 melanoma
# [10] = system: NCI-H226 lung
# [11] = system: CCRF-CEM leukemia
# [12] = system: HOP-92 NSCLC
# [13] = system: SK-MEL-5 melanoma
# [14] = system: SF-268 CNS
# [15] = system: OVCAR-5 ovarian
# [16] = system: IGROV1 ovarian
# [17] = system: SK-MEL-2 melanoma
# [18] = system: NCI-H23 lung
# [19] = system: OVCAR-3 ovarian
# [20] = system: MDA-N
smiles,measurement,setting,value
O=C(CC(=O)N1N=C(N(c2ccccc2)c2ccccc2)CC1c1ccccc1)Nc1ccccc1 (configuration not stated),TGI,[1],> 100 µM
same,TGI,[2],> 100 µM
same,TGI,[3],> 100 µM
same,TGI,[4],> 100 µM
same,TGI,[5],> 100 µM
same,TGI,[6],> 100 µM
same,TGI,[7],> 100 µM
same,TGI,[8],> 100 µM
same,TGI,[9],> 100 µM
same,TGI,[10],> 100 µM
same,TGI,[11],> 100 µM
same,TGI,[12],> 100 µM
same,TGI,[13],> 100 µM
same,TGI,[14],> 100 µM
same,TGI,[15],> 100 µM
same,TGI,[16],> 100 µM
same,TGI,[17],> 100 µM
same,TGI,[18],> 100 µM
same,TGI,[19],> 100 µM
Cc1cc(=O)[nH]c(NNC(C#N)c2ccco2)n1 (configuration not stated),TGI,[2],> 100 µM
same,TGI,[4],> 100 µM
same,TGI,[5],> 100 µM
same,TGI,[9],> 100 µM
same,TGI,[10],> 100 µM
same,TGI,[11],> 100 µM
same,TGI,[12],> 100 µM
same,TGI,[13],> 100 µM
same,TGI,[14],> 100 µM
same,TGI,[15],> 100 µM
same,TGI,[16],> 100 µM
same,TGI,[17],> 100 µM
same,TGI,[18],> 100 µM
same,TGI,[19],> 100 µM
O=C(OCc1ccccc1)N1CCCc2c(n(S(=O)(=O)c3ccccc3)c3ccccc23)C1,TGI,[1],> 100 µM
same,TGI,[2],> 100 µM
same,TGI,[3],> 100 µM
same,TGI,[4],> 100 µM
same,TGI,[5],> 100 µM
same,TGI,[7],> 100 µM
same,TGI,[20],> 100 µM
same,TGI,[9],> 100 µM
same,TGI,[10],> 100 µM
same,TGI,[12],> 100 µM
same,TGI,[13],> 100 µM
same,TGI,[14],> 100 µM
same,TGI,[15],> 100 µM
same,TGI,[16],> 100 µM
same,TGI,[17],> 100 µM
same,TGI,[18],> 100 µM
same,TGI,[19],> 100 µM
O=c1c2cc(S(=O)(=O)Nc3c(Cl)cccc3Cl)ccc2ncn1NS(=O)(=O)c1ccc2ccccc2c1,TGI,[1],> 62.5 µM
same,TGI,[3],> 62.5 µM
same,TGI,[4],> 62.5 µM
same,TGI,[5],> 62.5 µM
same,TGI,[6],> 62.5 µM
same,TGI,[8],> 62.5 µM
same,TGI,[20],> 62.5 µM
same,TGI,[9],> 62.5 µM
same,TGI,[10],35.1 µM
same,TGI,[11],> 62.5 µM
same,TGI,[12],> 62.5 µM
same,TGI,[14],> 62.5 µM
same,TGI,[15],> 62.5 µM
same,TGI,[16],> 62.5 µM
same,TGI,[17],> 62.5 µM
same,TGI,[18],> 62.5 µM
same,TGI,[19],> 62.5 µM
CC1(O)Oc2ccc3ccccc3c2C=C1C(N)=O (configuration not stated),TGI,[1],> 100 µM
same,TGI,[2],> 100 µM
same,TGI,[3],> 100 µM
same,TGI,[4],> 100 µM
same,TGI,[5],> 100 µM
same,TGI,[6],> 100 µM
same,TGI,[7],> 100 µM
same,TGI,[8],> 100 µM
same,TGI,[9],> 100 µM
same,TGI,[11],> 100 µM
same,TGI,[12],> 100 µM
same,TGI,[13],> 100 µM
same,TGI,[14],> 100 µM
same,TGI,[16],> 100 µM
same,TGI,[17],> 100 µM
same,TGI,[18],> 100 µM
Cn1c(=O)cc(N2CCCC2)[nH]c1=O,TGI,[1],> 100 µM
same,TGI,[3],> 100 µM
same,TGI,[5],> 100 µM
same,TGI,[6],> 100 µM
same,TGI,[8],> 100 µM
same,TGI,[9],> 100 µM
same,TGI,[10],> 100 µM
same,TGI,[11],> 100 µM
same,TGI,[12],> 100 µM
same,TGI,[13],> 100 µM
same,TGI,[14],> 100 µM
same,TGI,[15],> 100 µM
same,TGI,[16],> 100 µM
same,TGI,[17],> 100 µM
same,TGI,[18],> 100 µM
COC(=O)N/N=C(/Cc1occc(=O)c1O)C(=O)Nc1ccc([N+](=O)[O-])cc1[N+](=O)[O-],TGI,[1],> 100 µM
same,TGI,[2],> 100 µM
same,TGI,[4],> 100 µM
same,TGI,[5],> 100 µM
same,TGI,[6],> 100 µM
same,TGI,[9],> 100 µM
same,TGI,[10],> 100 µM
same,TGI,[11],> 100 µM
same,TGI,[12],> 100 µM
same,TGI,[13],> 100 µM
same,TGI,[14],> 100 µM
same,TGI,[15],> 100 µM
same,TGI,[16],> 100 µM
same,TGI,[17],> 100 µM
same,TGI,[18],> 100 µM
CC[C@H]1C=CCC[C@@]2(C[C@@H]3CC[C@H]4[C@H](C(=O)OCCCCCCCCCCCCCCCC(=O)N(CCCN)C[C@@H](O)CCN)[C@]5(CCC[C@@H](C)O5)NC(=[N+]34)N2)O1,TGI,[1],2.93 µM
same,TGI,[2],3.42 µM
same,TGI,[3],2.3 µM
same,TGI,[4],0.412 µM
same,TGI,[5],3.32 µM
same,TGI,[6],1.82 µM
same,TGI,[8],1.2 µM
same,TGI,[20],1.51 µM
same,TGI,[9],3.98 µM
same,TGI,[10],3.32 µM
same,TGI,[12],1.45 µM
same,TGI,[13],1.31 µM
same,TGI,[14],3.46 µM
same,TGI,[15],1.78 µM
same,TGI,[16],2.02 µM
same,TGI,[17],2.06 µM
same,TGI,[18],3.21 µM
same,TGI,[19],3.02 µM
O=C1NC2C(CCO)CC=C[C@H]2c2cc3c(cc21)OCO3 (some centres not stated),TGI,[1],> 100 µM
same,TGI,[2],> 100 µM
same,TGI,[4],> 100 µM
same,TGI,[5],> 100 µM
same,TGI,[9],> 100 µM
same,TGI,[10],> 100 µM
same,TGI,[11],> 100 µM
same,TGI,[14],> 100 µM
same,TGI,[16],> 100 µM
same,TGI,[18],> 100 µM
same,TGI,[19],> 100 µM
Cc1ccc(S(=O)(=O)Nn2c(O)c(C#N)c(-c3ccc(N(C)C)cc3)c(C#N)c2=O)cc1,TGI,[1],> 50 µM
same,TGI,[2],> 50 µM
same,TGI,[4],> 50 µM
same,TGI,[5],> 50 µM
same,TGI,[6],> 50 µM
same,TGI,[8],> 50 µM
same,TGI,[20],> 50 µM
same,TGI,[9],> 50 µM
same,TGI,[10],> 50 µM
same,TGI,[11],> 50 µM
same,TGI,[12],> 50 µM
same,TGI,[13],> 50 µM
same,TGI,[14],> 50 µM
same,TGI,[15],> 50 µM
same,TGI,[16],> 50 µM
same,TGI,[17],> 50 µM
COC1=CC(=O)C2C(C1=O)C(c1ccc(OC)c(OC)c1)[C@H]2C (some centres not stated),TGI,[1],> 100 µM
same,TGI,[2],35.2 µM
same,TGI,[4],> 100 µM
same,TGI,[5],> 100 µM
same,TGI,[6],> 100 µM
same,TGI,[9],39.3 µM
same,TGI,[10],> 100 µM
same,TGI,[11],62.4 µM
same,TGI,[12],36.6 µM
same,TGI,[13],61.4 µM
same,TGI,[14],> 100 µM
same,TGI,[15],> 100 µM
same,TGI,[16],> 100 µM
same,TGI,[17],> 100 µM
same,TGI,[18],42.9 µM
same,TGI,[19],40.1 µM
Nc1ncnc2c1ncn2C1CC(OC2CCCCO2)C(CO)O1 (configuration not stated),TGI,[1],> 100 µM
same,TGI,[2],> 100 µM
same,TGI,[5],> 100 µM
same,TGI,[6],> 100 µM
same,TGI,[9],> 100 µM
same,TGI,[10],> 100 µM
same,TGI,[11],> 100 µM
same,TGI,[12],> 100 µM
same,TGI,[14],> 100 µM
same,TGI,[15],> 100 µM
same,TGI,[16],> 100 µM
same,TGI,[17],> 100 µM
same,TGI,[18],> 100 µM
same,TGI,[19],> 100 µM
CC/C(SC)=[N+](\C)[O-],TGI,[1],> 100 µM
same,TGI,[2],> 100 µM
same,TGI,[4],> 100 µM
same,TGI,[5],> 100 µM
same,TGI,[6],> 100 µM
same,TGI,[9],> 100 µM
same,TGI,[10],> 100 µM
same,TGI,[11],23.2 µM
same,TGI,[12],> 100 µM
same,TGI,[13],> 100 µM
same,TGI,[14],> 100 µM
same,TGI,[15],> 100 µM
same,TGI,[16],> 100 µM
same,TGI,[17],> 100 µM
same,TGI,[18],> 100 µM
same,TGI,[19],> 100 µM
CC12C(=O)OC(=O)C1(C)C1C=CC2O1 (configuration not stated),TGI,[1],> 100 µM
same,TGI,[2],> 100 µM
same,TGI,[3],> 100 µM
same,TGI,[4],> 100 µM
same,TGI,[5],> 100 µM
same,TGI,[6],> 100 µM
same,TGI,[8],> 100 µM
same,TGI,[20],> 100 µM
same,TGI,[9],> 100 µM
same,TGI,[10],48.1 µM
same,TGI,[11],> 100 µM
same,TGI,[13],> 100 µM
same,TGI,[14],> 100 µM
same,TGI,[15],> 100 µM
same,TGI,[16],> 100 µM
same,TGI,[17],> 100 µM
same,TGI,[18],> 100 µM
same,TGI,[19],99 µM
